The values below come from patent US9296723B2, “NAMPT inhibitors” (AbbVie Inc., priority 2012, dated 2016).

SMILES strings stand for the structures.

In assay [1] the test system is PC3 cells. The assay is described as follows: NAMPT Cell Proliferation Assay (Cell Titer Glo). The class given is cell-based. The settings on record: Homo sapiens, PC-3, 120 h, incubated 5 days, cell viability. The method, then:
NAMPT Cell Proliferation Assay
PC3 cells were seeded in 96-well black plates (Corning #3904) at 500 cells/well in 90 µl of RPMI media containing 10% heat-inactivated FBS and incubated overnight at 37° C. and 5% CO2 to allow cells to attach to wells. The following day, test compounds were serially diluted in neat DMSO to 1000× final concentrations prior to dilution with RPMI media to 10× and 1% DMSO. Ten L of the 10× compounds were then transferred to wells containing cells to produce a dose response of 10-fold dilutions from […]. Cells were incubated for 5 days at 37° C. and 5% CO2, then cell viability was measured using Cell Titer Glo reagent (Promega #G7571). Percent inhibition values were calculated and fitted to a sigmoidal dose response curves using Assay Explorer software to determine IC50s.
In general terms: In ATP-based viability assays light output follows the ATP content of the culture.

Assay [2] has as its target NAMPT (Homo sapiens, UniProt P43490). Description: Time-Resolved Fluorescence Resonance Energy Transfer (TR-FRET) Binding Assay of NAMPT. The following applies: 6.8 nM NAMPT, 200 nM probe, equilibrated 3 hours, no substrates. The protocol: Determination of the utility of compounds having Formula (I) as binders to and inhibitors of NAMPT was performed using Time-Resolved Fluorescence Resonance Energy Transfer (TR-FRET) binding assays.
Time-Resolved Fluorescence Resonance Energy Transfer (TR-FRET) Binding Assay of NAMPT
Six L were transferred to 384-well low-volume plates ([…] #3673). To this, 12 L of a 1.5× solution containing enzyme, probe and antibody were added. […] Reactions were equilibrated at room temperature for 3 hours prior to reading on an Envision multi-label plate reader (Perkin Elmer; Ex=337 nm, Em=520 and 495 nm). Time-resolved FRET ratios (Em520/Em495) were normalized to controls, plotted as a function of compound concentration and fit with the four-parameter logistic equation to determine IC50s.
In general terms: Time-resolved FRET reads energy transfer from a long-lived donor to a nearby acceptor.

NAMPT, sequence (P43490 whole entry): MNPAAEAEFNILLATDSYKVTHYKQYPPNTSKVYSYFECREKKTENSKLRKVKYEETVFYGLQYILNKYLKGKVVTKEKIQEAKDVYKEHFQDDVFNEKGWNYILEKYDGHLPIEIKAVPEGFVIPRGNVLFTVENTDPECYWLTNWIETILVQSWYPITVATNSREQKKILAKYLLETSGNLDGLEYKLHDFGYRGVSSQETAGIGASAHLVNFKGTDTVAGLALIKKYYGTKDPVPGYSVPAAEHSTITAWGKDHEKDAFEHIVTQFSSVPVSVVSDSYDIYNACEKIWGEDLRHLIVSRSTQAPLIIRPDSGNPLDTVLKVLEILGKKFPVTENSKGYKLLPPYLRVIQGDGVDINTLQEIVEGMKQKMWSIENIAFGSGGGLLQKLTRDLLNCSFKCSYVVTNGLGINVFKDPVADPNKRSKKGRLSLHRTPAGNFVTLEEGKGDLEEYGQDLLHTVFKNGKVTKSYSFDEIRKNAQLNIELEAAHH

Take `CC(C)C(=O)N1CCC(c2ccc(NC(=O)N3CC(c4cccnc4)C3)cc2)C1` (stereo not drawn) [Example 65, N-{4-[1-(2-methylpropanoyl)pyrrolidin-3-yl]phenyl}-3-(pyridin-3-yl)azetidine-1-carboxamide]: the IC50 turned out to be 62.2 nM in assay [1] and 56.6 nM in assay [2].
For `CN(C)CCC(=O)N1CCC(c2ccc(NC(=O)N3CC(c4cccnc4)C3)cc2)C1` (stereo not drawn) [Example 266, N-{4-[1-(N,N-dimethyl-beta-alanyl)pyrrolidin-3-yl]phenyl}-3-(pyridin-3-yl)azetidine-1-carboxamide], the IC50 came out at 207 nM in assay [1] and 96.2 nM in assay [2].
For `O=C(CC(F)(F)F)N1CC[C@H](Oc2ccc(NC(=O)N3CC(c4cccnc4)C3)cc2)C1` [Example 96, 3-(pyridin-3-yl)-N-(4-{[(3S)-1-(3,3,3-trifluoropropanoyl)pyrrolidin-3-yl]oxy}phenyl)azetidine-1-carboxamide], in that order: 171 nM and 265 nM.
Regarding `CC(=O)N1CCC(c2ccc(NC(=O)N3CC(c4cccnc4)C3)cc2)C1` (stereo not drawn) [Example 277, N-[4-(1-acetylpyrrolidin-3-yl)phenyl]-3-(pyridin-3-yl)azetidine-1-carboxamide], the IC50 in assay [1] stood at 63.1 nM; in assay [2], 76.7 nM.
Take `CN(C)CCC(=O)N1CC[C@@H](Oc2ccc(NC(=O)N3CC(c4cccnc4)C3)cc2)C1` [Example 306, N-(4-{[(3R)-1-(N,N-dimethyl-beta-alanyl)pyrrolidin-3-yl]oxy}phenyl)-3-(pyridin-3-yl)azetidine-1-carboxamide]: the IC50 was determined as 298 nM in assay [1] and 507 nM in assay [2].
`CC(C)CCC(=O)N1CC[C@@H](Oc2ccc(NC(=O)N3CC(c4cccnc4)C3)cc2)C1` [Example 315, N-(4-{[(3R)-1-(4-methylpentanoyl)pyrrolidin-3-yl]oxy}phenyl)-3-(pyridin-3-yl)azetidine-1-carboxamide]: the figures for the IC50 in assay [1] and in assay [2] were 54.2 nM and 48.7 nM, respectively.
The matching figures for `O=C(Nc1ccc(O[C@@H]2CCN(C(=O)[C@H]3CCCO3)C2)cc1)N1CC(c2cccnc2)C1` [Example 79, 3-(pyridin-3-yl)-N-[4-({(3R)-1-[(2R)-tetrahydrofuran-2-ylcarbonyl]pyrrolidin-3-yl}oxy)phenyl]azetidine-1-carboxamide]: 41.4 nM and 92.9 nM.
On to `O=C(CN1CCCC1)N1CCC(c2ccc(NC(=O)N3CC(c4cccnc4)C3)cc2)C1` (stereo not drawn) [Example 265, 3-(pyridin-3-yl)-N-{4-[1-(pyrrolidin-1-ylacetyl)pyrrolidin-3-yl]phenyl}azetidine-1-carboxamide], for which the IC50 in assay [1] is 691 nM; in assay [2] it was 191 nM.
As to `O=C(Nc1ccc(OC2CN(C(=O)c3ccoc3)C2)cc1)N1CC(c2cccnc2)C1` [Example 151, N-(4-{[1-(furan-3-ylcarbonyl)azetidin-3-yl]oxy}phenyl)-3-(pyridin-3-yl)azetidine-1-carboxamide], the results for the 50% inhibitory concentration (IC50) in assay [1] and in assay [2] were 15.4 nM and 20.8 nM, respectively.
For `CC(C)C(=O)N1CC[C@@H](Oc2ccc(NC(=O)N3CC(c4cccnc4)C3)cc2)C1` [Example 77, N-(4-{[(3R)-1-(2-methylpropanoyl)pyrrolidin-3-yl]oxy}phenyl)-3-(pyridin-3-yl)azetidine-1-carboxamide], the IC50 was 17.3 nM in assay [1] and 61.9 nM in assay [2].
For `CCCC(=O)N1CC[C@@H](Oc2ccc(NC(=O)N3CC(c4cccnc4)C3)cc2)C1` [Example 87, N-(4-{[(3R)-1-butanoylpyrrolidin-3-yl]oxy}phenyl)-3-(pyridin-3-yl)azetidine-1-carboxamide], in that order: 6.04 nM and 19.8 nM.
For `CC1(C(=O)N2CCC(c3ccc(NC(=O)N4CC(c5cccnc5)C4)cc3)C2)CC1` (stereo not drawn) [Example 269, N-(4-{1-[(1-methylcyclopropyl)carbonyl]pyrrolidin-3-yl}phenyl)-3-(pyridin-3-yl)azetidine-1-carboxamide], the half-maximal inhibitory concentration (IC50) in assay [1] is 16.7 nM; in assay [2], 20.1 nM.

Broadly, the IC50 is the concentration at which inhibition is half-maximal.
